Experimental data as given in ChEMBL document CHEMBL1150101, “Novel antiplatelet naphthalene from Rhamnus nakaharai” (J Nat Prod, 1995).

Tests used:
[1] = Antiplatelet activity against washed rabbit platelet assessed as collagen-induced platelet aggregation at 300 uM administered 3 mins before collagen challenge; type: functional, Oryctolagus cuniculus
[2] = Antiplatelet activity against washed rabbit platelet assessed as arachidonic acid-induced platelet aggregation at 300 uM administered 3 mins before arachidonic acid challenge; type: functional, Oryctolagus cuniculus
[3] = Antiplatelet activity against washed rabbit platelet assessed as PAF-induced platelet aggregation at 300 uM administered 3 mins before PAF challenge; type: functional, Oryctolagus cuniculus
[4] = Antiplatelet activity against washed rabbit platelet assessed as thrombin-induced platelet aggregation at 300 uM administered 3 mins before thrombin challenge; type: functional, Oryctolagus cuniculus
[5] = Antiplatelet activity against washed rabbit platelet assessed as PAF-induced platelet aggregation at 400 uM administered 3 mins before PAF challenge; type: functional, Oryctolagus cuniculus
[6] = Antiplatelet activity against washed rabbit platelet assessed as collagen-induced platelet aggregation at 400 uM administered 3 mins before collagen challenge; type: functional, Oryctolagus cuniculus
[7] = Antiplatelet activity against washed rabbit platelet assessed as arachidonic acid-induced platelet aggregation at 400 uM administered 3 mins before arachidonic acid challenge; type: functional, Oryctolagus cuniculus
[8] = Antiplatelet activity against human platelet assessed as epinephrine-induced platelet aggregation at 100 uM administered 3 mins before epinephrine challenge; type: functional
[9] = Antiplatelet activity against washed rabbit platelet assessed as thrombin-induced platelet aggregation at 400 uM administered 3 mins before thrombin challenge; type: functional, Oryctolagus cuniculus
[10] = Antiplatelet activity against human platelet assessed as epinephrine-induced platelet aggregation at 50 uM administered 3 mins before epinephrine challenge; type: functional
[11] = Antiplatelet activity against human platelet assessed as epinephrine-induced platelet aggregation at 20 uM administered 3 mins before epinephrine challenge; type: functional
[12] = Antiplatelet activity against washed rabbit platelet assessed as arachidonic acid-induced platelet aggregation; type: functional, cell-based; settings: Oryctolagus cuniculus
[13] = Antiplatelet activity against washed rabbit platelet assessed as collagen-induced platelet aggregation at 50 uM administered 3 mins before collagen challenge; type: functional, Oryctolagus cuniculus
[14] = Antiplatelet activity against washed rabbit platelet assessed as arachidonic acid-induced platelet aggregation at 50 uM administered 3 mins before arachidonic acid challenge; type: functional, Oryctolagus cuniculus
[15] = Antiplatelet activity against washed rabbit platelet assessed as thrombin-induced platelet aggregation at 50 uM administered 3 mins before thrombin challenge; type: functional, Oryctolagus cuniculus
[16] = Antiplatelet activity against washed rabbit platelet assessed as PAF-induced platelet aggregation at 50 uM administered 3 mins before PAF challenge; type: functional, Oryctolagus cuniculus
[17] = Antiplatelet activity against human platelet assessed as epinephrine-induced platelet aggregation administered 3 mins before epinephrine challenge; type: functional

SMILES	Activity [1] [%]	Activity [2] [%]	Activity [3] [%]	Activity [4] [%]	other results
COc1cc(O)c2c(O)c3c(cc2c1)COC3=O	41.7	22.1	80	88.1	–
COc1c(-c2ccc(O)c(O)c2)oc2cc(O)cc(O)c2c1=O [3-O-METHYLQUERCETIN]	5.4	0	50.1	81.2	–
COc1cc(O)cc2cc(C)c(C(C)=O)c(O)c12 [ISOTORACHRYSONE]	–	–	–	–	Activity [5]: 94.2%; Activity [6]: 39.1%; Activity [7]: 0%; Activity [8]: 20.2%; Activity [9]: 92.2%
COc1c(-c2ccc(OC(C)=O)c(OC(C)=O)c2)oc2cc(OC(C)=O)cc(OC(C)=O)c2c1=O	0	0	0	64.9	–
COc1cc(OC(C)=O)cc2cc(C)c(C(C)=O)c(OC(C)=O)c12 [ISOTORACHRYSONE PERACETATE]	16.8	0	86.7	82.7	Activity [10]: 13%; Activity [11]: 83%; IC50 [12]: 5.1 µM
CC(=O)Oc1ccccc1C(=O)O [ASPIRIN]	–	–	–	–	Activity [13]: 85.4%; Activity [14]: 0%; Activity [15]: 91.9%; Activity [16]: 90.5%; Activity [17]: 39.6%
